Literature values in patent US20060115514A1, “Chelating and binding chemicals to a medical implant, medical device formed, and therapeutic applications” (priority 2004, published 2006).

Columns and labels:
[1] = system: restenosis; conditions: oral administration
[2] = system: neointimal formation after balloon injury; conditions: after balloon injury in rats

Row | SMILES | incidence of adverse events [1] | neointimal formation [2]
1 | CO[C@H]1C[C@@H]2CC[C@@H](C)[C@@](O)(O2)C(=O)C(=O)N2CCCC[C@H]2C(=O)O[C@H]([C@H](C)C[C@@H]2CC[C@@H](O)[C@H](OC)C2)CC(=O)[C@H](C)/C=C(\C)[C@@H](O)[C@@H](OC)C(=O)[C@H](C)C[C@H](C)/C=C/C=C/C=C/1C [sirolimus] | higher incidence of adverse events | 
2 | N=C(N)c1ccc2cc(OC(=O)c3ccc(N=C(N)N)cc3)ccc2c1 [FUT-175] |  | inhibits
